Measured values reported in patent US20050101655A1, “Migraine treatments including isovaleramide compounds and serotonin agonists” (priority 2003, published 2005).

Assays:
chronic spinalized rats [1] = assay: polysynaptic flexor-reflex responses (EMG) in chronic spinalized rats; type: in vivo; settings: for total reduction of the flexor reflex (total area under the curve): two-hour measurement period, several doses, vs vehicle
Protocol: (§1) Assessment of hyperreflexia, pain, and muscle tone in chronic spinally transected rats was conducted using male albino Holtzman-derived rats (available from Harlan Sprague-Dawley Laboratories) weighing 270-530 grams as subjects. The rats were housed independently and had continuous access to food and water throughout the experiments. All procedures were reviewed and approved by the Institutional Animal Care and Use Committee. Animals were anesthetized using a mixture of isoflurane and oxygen at a flow rate of 4 liters/minute.
(§2) The rats were placed in a stereotaxic frame and anesthesia was maintained. An incision was made so that the paraspinal muscles could be retracted and a laminectomy performed between T6-T9. A one- to two-millimeter portion of the spinal cord was removed by evacuation and replaced with gel foam to reduce bleeding, after which the incision was closed in layers.
Following the transection, rats were placed in a room in which the ambient temperature was raised to about 80° F. with a space heater to maintain body temperature. On the following morning post-surgery, the hindquarters of the spinalized rats were bathed and their urine expressed manually by applying pressure to their bladders. Experiments were conducted between 21 and 28 days after surgery. For the first two weeks post-surgery, 0.25 ml of the antibiotic Sulfatrim Pediatric Suspension was orally administered to the rats to prevent bladder infection. […]
With reference to FIG. 3, polysynaptic flexor-reflex responses, elicited by stimuli that activate high-threshold afferents, were recorded as EMG activity from the ipsilateral hamstring muscle. […] The flexor reflex was recorded, in both the pre-drug and the post-drug periods, every 30 minutes once a stable baseline response was achieved. […] The responses were determined in spinalized rats by observing the flexor-reflex response before treatment and at each of 30, 60, 90, and 120 minutes following administration of isovaleramide (300 mg/kg p.o.), baclofen (10 mg/kg s.c.) and vehicle (water, 12 ml/kg p.o.), respectively. […]

chronic spinalized rats [2] = assay: observational scoring of hyperreflexia elicited by an innocuous stimulus in chronic spinalized rats; type: in vivo; settings: 300 mg/kg i.p.
Protocol: as §1, §2
Following the transection, rats were placed in a room in which the ambient temperature was raised to about 80° F. with a space heater to maintain body temperature. On the following morning post-surgery, the hindquarters of the spinalized rats were bathed and their urine expressed manually by applying pressure to their bladders. Experiments were conducted between 21 and 28 days after surgery. For the first two weeks post-surgery, 0.25 ml of the antibiotic Sulfatrim Pediatric Suspension was orally administered to the rats to prevent bladder infection. […] Within approximately two weeks, all animals regained bladder control and were no longer given antibiotic treatment. […]
Initial assessment of hyperreflexia was performed by the subjective scoring method of rating the resulting hyperreflexia response elicited with an innocuous stimulus, such as a metal probe. […] The response was evaluated for each of four trials using a scale ranging from zero (no response in all four trials) to four (a maximum, tonic-clonic reaction elicited in all four trials). […] The raw or normalized scores were analyzed with a one-way repeated measures ANOVA. […]

[3] = oral absorption / bioavailability of isovaleramide; settings: in vivo
mice = assay: hot plate test in mice (foot licking latency); type: in vivo; settings: 600 orally, 60 minutes after administration, hot plate 54° C., compared to vehicle
migraine symptoms = settings: reported; cited from earlier work

Q: With `NCC(CC(=O)O)c1ccc(Cl)cc1` (stereo not drawn) [baclofen, reference compound] as the molecule, how does the “total reduction of the flexor reflex (total area under the curve)” value (chronic spinalized rats [1]) read?
A: dose-dependent reduction of the flexor reflex

Q: What does the source list for `CC(C)CC(N)=O` [isovaleramide, Isovaleramide]?
A: overt behavioral toxicity or motor impairment (chronic spinalized rats [2]; chronic spinalized rats): No overt behavioral toxicity or motor impairment; reduction of hyperreflexia scores (chronic spinalized rats [2]; 15, 30, 60 and 120 minutes post-administration): 45-65%; hyperreflexia scores by the next day (chronic spinalized rats [2]; 1440 minutes (24 hours)): essentially returned to baseline values; bioavailability [3]: ~100%; magnitude of the flexor-reflex responses (chronic spinalized rats [1]; 300 mg/kg p.o., 30, 60, 90 and 120 minutes, compared with baclofen 10 mg/kg s.c.): reduce the magnitude of the flexor-reflex responses; total reduction of the flexor reflex (total area under the curve) (chronic spinalized rats [1]): dose-dependent reduction of the flexor reflex; foot licking latency (mice): increased foot licking latency

Q: Which “patients with relief of the migraine symptoms” value (migraine symptoms) does the source give for `CNS(=O)(=O)Cc1ccc2[nH]cc(CCN(C)C)c2c1` [sumatriptan] here?
A: approximately 40%
